Experimental data from patent publication US8846912B2, “Tartrate salts of quinazoline based EGFR inhibitors containing a zinc binding moiety” (Curis, Inc., priority 2007, dated 2014).

Target: HDAC
Assay: HDAC fluorimetric enzyme assay (HeLa nuclear extract)
Type: biochemical
Protocol: HDAC inhibitors were screened using an HDAC fluorimetric assay kit (AK-500, Biomol, Plymouth Meeting, Pa.).
Each assay was setup as follows: Defrosted all kit components and kept on ice until use. […] Prepared dilutions of Trichostatin A (TSA, positive control) and tested compounds in assay buffer (5× of final concentration). Diluted Fluor de Lys™ Substrate in assay buffer to 100 uM (50 fold=2× final). Diluted Fluor de Lys™ developer concentrate 20-fold (e.g. 50 μl plus 950 μl Assay Buffer) in cold assay buffer. Second, diluted the 0.2 mM Trichostatin A 100-fold in the 1× Developer (e.g. 10 μl in 1 ml; final Trichostatin A concentration in the 1× Developer=2 μM; final concentration after addition to HDAC/Substrate reaction=1 μM). Added Assay buffer, diluted trichostatin A or test inhibitor to appropriate wells of the microtiter plate. Added diluted HeLa extract or other HDAC sample to all wells except for negative controls.

Structure (SMILES) | IC50
COc1cc2ncnc(Nc3ccc(F)c(Cl)c3)c2cc1OCC(=O)NO [Compound 1, 2-(4-(3-Chloro-4-fluorophenylamino)-7-methoxyquinazolin-6-yloxy)-N-hydroxyacetamide] | > 10000 nM
COc1cc2ncnc(Nc3ccc(F)c(Cl)c3)c2cc1OCCC(=O)NO [Compound 2] | > 10000 nM
COc1cc2ncnc(Nc3ccc(F)c(Cl)c3)c2cc1OCCCC(=O)NO [Compound 3, 4-(4-(3-Chloro-4-fluorophenylamino)-7-methoxyquinazolin-6-yloxy)-N-hydroxybutanamide] | > 10000 nM
COc1cc2ncnc(Nc3ccc(F)c(Cl)c3)c2cc1OCCCCC(=O)NO [Compound 4] | 100 to 1000 nM
COc1cc2ncnc(Nc3ccc(F)c(Cl)c3)c2cc1OCCCCCC(=O)NO [Compound 5] | < 100 nM
C#Cc1cccc(Nc2ncnc3cc(OC)c(OCC(=O)NO)cc23)c1 [Compound 7, 2-(4-(3-ethynylphenylamino)-7-methoxyquinazolin-6-yloxy)-N-hydroxyacetamide] | > 10000 nM
C#Cc1cccc(Nc2ncnc3cc(OC)c(OCCC(=O)NO)cc23)c1 [Compound 8] | > 10000 nM
C#Cc1cccc(Nc2ncnc3cc(OC)c(OCCCC(=O)NO)cc23)c1 [Compound 9, 4-(4-(3-ethynylphenylamino)-7-methoxyquinazolin-6-yloxy)-N-hydroxybutanamide] | 100 to 1000 nM
C#Cc1cccc(Nc2ncnc3cc(OC)c(OCCCCC(=O)NO)cc23)c1 [Compound 10, 5-(4-(3-Ethynylphenylamino)-7-methoxyquinazolin-6-yloxy)-N-hydroxypentanamide] | 100 to 1000 nM
C#Cc1cccc(Nc2ncnc3cc(OC)c(OCCCCCC(=O)NO)cc23)c1 [Compound 11, 6-(4-(3-ethynylphenylamino)-7-methoxyquinazolin-6-yloxy)-N-hydroxyhexanamide] | < 100 nM
O=C(COc1ccc2ncnc(Nc3ccc(F)c(Cl)c3)c2c1)NO [Compound 13, 2-(4-(3-Chloro-4-fluorophenylamino)quinazolin-6-yloxy)-N-hydroxyacetamide] | > 10000 nM
O=C(CCOc1ccc2ncnc(Nc3ccc(F)c(Cl)c3)c2c1)NO [Compound 14] | 1000 to 10000 nM
O=C(CCCOc1ccc2ncnc(Nc3ccc(F)c(Cl)c3)c2c1)NO [Compound 15, 4-(4-(3-chloro-4-fluorophenylamino)quinazolin-6-yloxy)-N-Hydroxybutanamide] | < 100 nM
O=C(CCCCOc1ccc2ncnc(Nc3ccc(F)c(Cl)c3)c2c1)NO [Compound 16, 5-(4-(3-chloro-4-fluorophenylamino)quinazolin-6-yloxy)-N-hydroxypentanamide] | 100 to 1000 nM
O=C(CCCCCOc1ccc2ncnc(Nc3ccc(F)c(Cl)c3)c2c1)NO [Compound 17, 6-(4-(3-Chloro-4-fluorophenylamino)quinazolin-6-yloxy)-N-hydroxyhexanamide] | < 100 nM
O=C(CCCCCCOc1ccc2ncnc(Nc3ccc(F)c(Cl)c3)c2c1)NO [Compound 18, 7-(4-(3-chloro-4-fluorophenylamino)quinazolin-6-yloxy)-N-hydroxyheptanamide] | < 100 nM
C#Cc1cccc(Nc2ncnc3ccc(OCC(=O)NO)cc23)c1 [Compound 19, 2-(4-(3-ethynylphenylamino)quinazolin-6-yloxy)-N-hydroxyacetamide] | > 10000 nM
C#Cc1cccc(Nc2ncnc3ccc(OCCCC(=O)NO)cc23)c1 [Compound 21, 4-(4-(3-ethynylphenylamino)quinazolin-6-yloxy)-N-hydroxybutanamide] | 1000 to 10000 nM
C#Cc1cccc(Nc2ncnc3ccc(OCCCCC(=O)NO)cc23)c1 [Compound 22] | < 100 nM
C#Cc1cccc(Nc2ncnc3ccc(OCCCCCC(=O)NO)cc23)c1 [Compound 23, 6-(4-(3-ethynylphenylamino)quinazolin-6-yloxy)-N-hydroxyhexanamide] | < 100 nM
C#Cc1cccc(Nc2ncnc3ccc(OCCCCCCC(=O)NO)cc23)c1 [Compound 24, 7-(4-(3-ethynylphenylamino)quinazolin-6-yloxy)-N-hydroxyheptanamide] | < 100 nM
COCCOc1cc2ncnc(Nc3ccc(F)c(Cl)c3)c2cc1OCCCCCCC(=O)NO [Compound 30, 7-(4-(3-Chloro-4-fluorophenylamino)-7-(2-methoxyethoxy)quinazolin-6-yloxy)-N-hydroxyheptanamide] | < 100 nM
C#Cc1cccc(Nc2ncnc3cc(OCCOC)c(OCCCCCCC(=O)NO)cc23)c1 [Compound 36, 7-(4-(3-Ethynylphenylamino)-7-(2-methoxyethoxy)quinazolin-6-yloxy)-N-hydroxyheptanamide] | < 100 nM

Structure (SMILES) | IC50
COc1cc2ncnc(Nc3ccc(F)c(Cl)c3)c2cc1NC(=O)CCCC(=O)NO [Compound 38, N^1-(4-(3-chloro-4-fluorophenylamino)-7-methoxyquinazolin-6-yl)-N^5-hydroxyglutaramide] | 1000 to 10000 nM
COc1cc2ncnc(Nc3ccc(F)c(Cl)c3)c2cc1NC(=O)CCCCCCC(=O)NO [Compound 40, N^1-(4-(3-chloro-4-fluorophenylamino)-7-methoxyquinazolin-6-yl)-N^8-hydroxyoctanediamide] | < 100 nM
C#Cc1cccc(Nc2ncnc3cc(OC)c(NC(=O)CCCC(=O)NO)cc23)c1 [Compound 42, N^1-(4-(3-ethynylphenylamino)-7-methoxyquinazolin-6-yl)-N^5-hydroxyglutaramide] | 100 to 1000 nM
C#Cc1cccc(Nc2ncnc3cc(OC)c(NC(=O)CCCCC(=O)NO)cc23)c1 [Compound 43, N^1-(4-(3-ethynylphenylamino)-7-methoxyquinazolin-6-yl)-N^6-hydroxyadipamide] | 100 to 1000 nM
C#Cc1cccc(Nc2ncnc3cc(OC)c(NC(=O)CCCCCCC(=O)NO)cc23)c1 [Compound 44, N^1-(4-(3-ethynylphenylamino)-7-methoxyquinazolin-6-yl)-N^8-hydroxyoctanediamide] | < 100 nM
Nc1cc(Br)ccc1NC(=O)COc1ccc2ncnc(Nc3ccc(F)c(Cl)c3)c2c1 [Compound 45] | > 10000 nM
C[C@@H](Nc1ncnc2ccc(OCCCCCC(=O)NO)cc12)c1ccccc1 [Compound 50] | 100 to 1000 nM
O=C(/C=C/c1ccc(OCCOc2ccc3ncnc(Nc4ccc(F)c(Cl)c4)c3c2)cc1)NO [Compound 63] | 100 to 1000 nM
COc1cc2ncnc(Nc3ccc(F)c(Cl)c3)c2cc1OCCOc1ccc(/C=C/C(=O)NO)cc1 [Compound 66, (E)-3-(4-(2-(4-(3-chloro-4-fluorophenylamino)-7-methoxyquinazolin-6-yloxy)ethoxy)phenyl)-N-hydroxyacrylamide] | 100 to 1000 nM
COCCOc1cc2ncnc(Nc3ccc(F)c(Cl)c3)c2cc1NC(=O)CCCC(=O)NO [Compound 68, N^1-(4-(3-chloro-4-fluorophenylamino)-7-(2-methoxyethoxy)quinazolin-6-yl)-N^5-hydroxyglutaramide] | 1000 to 10000 nM
COCCOc1cc2ncnc(Nc3ccc(F)c(Cl)c3)c2cc1NC(=O)CCCCC(=O)NO [Compound 69, N^1-(4-(3-chloro-4-fluorophenylamino)-7-(2-methoxyethoxy)quinazolin-6-yl)-N^6-hydroxyadipamide] | 100 to 1000 nM
C#Cc1cc(Nc2ncnc3cc(OC)c(OCCCCCCC(=O)NO)cc23)ccc1F [Compound 75, 7-(4-(3-ethynyl-4-fluorophenylamino)-7-methoxyquinazolin-6-yloxy)-N-hydroxyheptanamide] | < 100 nM
C#Cc1cc(Nc2ncnc3cc(OCCOC)c(OCCCCCCC(=O)NO)cc23)ccc1F [Compound 76] | < 100 nM
COc1cc2ncnc(N[C@H](C)c3ccccc3)c2cc1OCCCCCC(=O)NO [Compound 77, (R)—N-hydroxy-6-(7-methoxy-4-(1-phenylethylamino)quinazolin-6-yloxy)-hexanamide] | < 100 nM
C[C@@H](Nc1ncnc2ccc(OCCCCCC(=O)NO)cc12)c1ccccc1 [Compound 78, (R)—N-hydroxy-6-(4-(1-phenylethylamino)-quinazolin-6-yloxy)hexanamide] | < 100 nM
COc1cc2ncnc(N[C@H](C)c3ccccc3)c2cc1OCCCCCCC(=O)NO [Compound 79, (R)—N-hydroxy-7-(7-methoxy-4-(1-phenylethylamino)quinazolin-6-yloxy)heptanamide] | < 100 nM
COc1cc2ncnc(N[C@@H](C)c3ccccc3)c2cc1OCCCCCCC(=O)NO [Compound 80, (S)—N-hydroxy-7-(7-methoxy-4-(1-phenylethylamino)quinazolin-6-yloxy) heptanamide] | < 100 nM
COc1cc2ncnc(N[C@H](C)c3ccc(F)cc3)c2cc1OCCCCCCC(=O)NO [Compound 81, (R)-7-(4-(1-(4-fluorophenyl)ethylamino)-7-methoxyquinazolin-6-yloxy)-N-hydroxyheptanamide] | 100 to 1000 nM
COc1cc2ncnc(N[C@H](C)c3ccc(Cl)cc3)c2cc1OCCCCCCC(=O)NO [Compound 82, (R)-7-(4-(1-(4-Chlorophenyl)ethylamino)-7-methoxyquinazolin-6-yloxy)-N-hydroxyheptanamide] | 100 to 1000 nM
COc1ccc([C@@H](C)Nc2ncnc3cc(OC)c(OCCCCCCC(=O)NO)cc23)cc1 [Compound 83, (R)—N-Hydroxy-7-(7-methoxy-4-(1-(4-methoxyphenyl)ethylamino)-quinazolin-6-yloxy)-heptanamide] | < 100 nM
COc1cc2ncnc(NCCc3ccccc3)c2cc1OCCCCCCC(=O)NO [Compound 84] | < 100 nM
COc1cc2ncnc(NCc3ccccc3)c2cc1OCCCCCCC(=O)NO [Compound 85, 7-(4-(Benzylamino)-7-methoxyquinazolin-6-yloxy)-N-hydroxyheptanamide] | < 100 nM
COc1cc2ncnc(NCc3ccc(F)cc3)c2cc1OCCCCCCC(=O)NO [Compound 86, 7-(4-(4-fluorobenzylamino)-7-methoxyquinazolin-6-yloxy)-N-hydroxyheptanamide] | < 100 nM
